Test system: DN rats
Assay: type II diabetic nephropathy (DN) rat model (high-sugar high-fat diet + streptozocin)
Type: in vivo, SD (Sprague Dawley) rats
Conditions: for BUN / CREA / Glycated hemoglobin / Urinary protein / mALB (microalbumin in urine) / ICAM-1 / IL-1β / IL-6 / MDA / NF-κB / SOD / T-AOC / TGF-β1 / TNF-α / Glucose (GLU) / HDL-C / LDL-C / TC / TG / UA / Kidney coefficient / VCAM-1: gavage, 6 weeks; for Urinary protein / mALB (microalbumin in urine): 6-hour urine; for ICAM-1 / IL-1β / IL-6 / MDA / NF-κB / SOD / T-AOC / TGF-β1 / TNF-α / VCAM-1: renal tissues; for Glucose (GLU) / HDL-C / LDL-C / TC / TG / UA: serum; for Kidney coefficient: weights of two kidneys/body weight
Method: The solid dispersions are prepared through a solvent method, comprising steps of: respectively precisely weighing LM49, PVPK30 and tween80 with a weight ratio of 1:5:1, and A8, PVPK30 and tween80 with a weight ratio of 1:4:1; dissolving with appropriate absolute ethyl alcohol, continuously stirring, and uniformly mixing; placing on the water bath at 60° C., evaporating and removing the absolute ethyl alcohol, and obtaining a viscous material; placing in the freezer at −20° C., and freezing for 2 hours; taking out from the freezer, then placing in the vacuum drying oven, and drying for 24 hours; after becoming embrittlement, smashing and sieving with a sieve of 80 meshes, and then placing in the dryer for storage.
The healthy adult male SD rats (having a weight of 180-220 g) are fed with the high-sugar and high-fat diet for 4 weeks; the rats are fasting overnight; and streptozocin (STZ) of 40 mg/kg is intraperitoneally injected into the rats. The rats of normal control group are injected with the sodium citrate buffer of same volume; 72 hours later, the rats are fasting for 12 hours. […] During the administration period, the successfully established model rats are still fed with the high-sugar and high-fat diet, while the rats of the normal control group are fed with the normal diet.
After administration for 6 weeks, 6-hour urine of the rats is collected with the metabolism cage.
The rats are fasting overnight and anesthetized intraperitoneally, then the abdominal aorta blood thereof is drawn for measuring the related indexes. The two kidneys of each rat are washed with the normal saline; weights of the kidneys are recorded; and the kidney coefficient (weights of two kidneys/body weight) is calculated. The renal tissues (comprising the glomerulus and renal tubules) at the same part of the left kidney are cut lengthwise and immersed in the 10% neutral formalin for pathomorphology analysis, and the other parts of the left kidney are used for biochemical index measurement; the right kidney is used for mechanism research and stored in the freezer at −80° C.
After successfully establishing the model rats, expect the normal control group (ten rats), the remaining rats are randomly divided into eight groups, wherein each group has twelve rats. The eight groups are respectively the model group, the LM49 solid dispersion low-dose group (with the drug concentration of 3 mg/kg), the LM49 solid dispersion medium-dose group (with the drug concentration of 9 mg/kg), the LM49 solid dispersion high-dose group (with the drug concentration of 27 mg/kg), the A8 solid dispersion low-dose group (with the drug concentration of 3 mg/kg), the A8 solid dispersion medium-dose group (with the drug concentration of 9 mg/kg), the A8 solid dispersion high-dose group (with the drug concentration of 27 mg/kg), and the captopril control group (with the drug concentration of 15 mg/kg).
Administration Way: By Gavage.
The rats of the normal control group and the model group are administrated with the normal saline of 1.0 ml/100 g; the rats of the positive control group, the LM49 solid dispersion high-dose, medium-dose and low-dose groups and the A8 solid dispersion high-dose, medium-dose and low-dose groups are respectively administrated with the drugs of different concentrations, and the administration volume is 1.0 ml/100 g.
The solid dispersions are dissolved by the normal saline; and the rats of the positive control group are administrated with the 0.5% CMC-Na (sodium carboxymethyl cellulose) suspension.
The rats are administrated seven days a week, for totally six weeks.
The IBM SPSS Statistics 20 software is used for data processing, and the data is represented in x±s. The one-way analysis of variance (ANOVA) is adopted for comparison among the groups. According to the homogeneity test results of variance, if the variance is equal, the LSD (least significant difference) test is adopted; if the variance is unequal, the Dunnett's T3 test is adopted. […]

`O=C(c1cc(OC(=O)N2CCOCC2)c(OC(=O)N2CCOCC2)cc1Cl)c1cc(Cl)ccc1OC(=O)N1CCOCC1` [A8, 4,5,2′-tris(4-morpholinemethanoyl)-2,5′-dichlorobenzophenone] was tested, and the BUN (DN rats, high-dose 27 mg/kg) was 10.05 ± 1.61 mmol/L, the CREA (DN rats, high-dose 27 mg/kg) was 52.06 ± 1.66 µmol/L and the Glycated hemoglobin (DN rats, high-dose 27 mg/kg) was 6.44 ± 0.53^□□● %. The Urinary protein (DN rats, high-dose 27 mg/kg) was 1.42 ± 0.71^□□●●▴ mg/6 h, the “mALB (microalbumin in urine)” value (DN rats, high-dose 27 mg/kg) was 39.00 ± 7.58^□□●●▴▴ μg/6 h and the ICAM-1 (DN rats, high-dose 27 mg/kg) was 322.5 ± 85.70 pg/mgprog. The IL-1β (DN rats, high-dose 27 mg/kg) was 133.45 ± 24.68 pg/mgprog, the IL-6 (DN rats, high-dose 27 mg/kg) was 71.29 ± 14.14^□□● pg/mgprog and the MDA (DN rats, high-dose 27 mg/kg) was 1.42 ± 0.25 nmol/mgprog. For the same compound, the NF-κB (DN rats, high-dose 27 mg/kg) was 298.32 ± 58.92^□□▴▴◯◯ pg/mgprog, the SOD (DN rats, high-dose 27 mg/kg) was 4.37 ± 1.25 U/mgprog and the T-AOC (DN rats, high-dose 27 mg/kg) was 1.32 ± 0.17 U/mgprog. For the same compound, the TGF-β1 (DN rats, high-dose 27 mg/kg) was 21.36 ± 4.64^□□●●▴▴ pg/mgprot, the TNF-α (DN rats, high-dose 27 mg/kg) was 304.51 ± 73.47^□ pg/mgprog and the “Glucose (GLU)” value (DN rats, high-dose 27 mg/kg) was 9.75 ± 2.11^□□●●▴◯ mmol/L. The HDL-C (DN rats, high-dose 27 mg/kg) was 1.20 ± 0.27 mmol/L, the LDL-C (DN rats, high-dose 27 mg/kg) was 1.01 ± 0.20^□□●▴ mmol/L and the TC (DN rats, high-dose 27 mg/kg) was 1.42 ± 0.19^□□●●▴◯ mmol/L. The TG (DN rats, high-dose 27 mg/kg) was 0.30 ± 0.08^□□ mmol/L, the UA (DN rats, high-dose 27 mg/kg) was 26.44 ± 5.85^□□●● μmol/L and the Kidney coefficient (DN rats, high-dose 27 mg/kg) was 0.86 ± 0.05^□ %. The “lesions of the renal tissues” value (DN rats, kidney pathology (HE, Masson staining)) was “effectively reduce the lesions of the renal tissues”, the BUN (DN rats, low-dose 3 mg/kg) was 10.56 ± 1.74 mmol/L and the CREA (DN rats, low-dose 3 mg/kg) was 54.16 ± 2.95 µmol/L. The Glycated hemoglobin (DN rats, low-dose 3 mg/kg) was 8.64 ± 0.45%, the Urinary protein (DN rats, low-dose 3 mg/kg) was 3.64 ± 0.65^□□ mg/6 h and the “mALB (microalbumin in urine)” value (DN rats, low-dose 3 mg/kg) was 88.91 ± 10.33^□□ μg/6 h. For the same compound, the ICAM-1 (DN rats, low-dose 3 mg/kg) was 339.84 ± 92.15 pg/mgprog, the IL-1β (DN rats, low-dose 3 mg/kg) was 178.45 ± 31.59 pg/mgprog and the IL-6 (DN rats, low-dose 3 mg/kg) was 139.85 ± 55.41^□ pg/mgprog. The MDA (DN rats, low-dose 3 mg/kg) was 1.52 ± 0.38 nmol/mgprog, the NF-κB (DN rats, low-dose 3 mg/kg) was 1601.45 ± 206.73^□●● ^ pg/mgprog and the SOD (DN rats, low-dose 3 mg/kg) was 5.57 ± 1.75 U/mgprog. For the same compound, the T-AOC (DN rats, low-dose 3 mg/kg) was 1.39 ± 0.19 U/mgprog, the TGF-β1 (DN rats, low-dose 3 mg/kg) was 59.35 ± 7.34^□□ pg/mgprot and the TNF-α (DN rats, low-dose 3 mg/kg) was 485.60 ± 138.80 pg/mgprog. The VCAM-1 (DN rats, low-dose 3 mg/kg) was 37.85 ± 9.28 pg/mgprog, the “Glucose (GLU)” value (DN rats, low-dose 3 mg/kg) was 13.11 ± 3.95^□□ mmol/L and the HDL-C (DN rats, low-dose 3 mg/kg) was 1.21 ± 0.28 mmol/L. For the same compound, the LDL-C (DN rats, low-dose 3 mg/kg) was 1.77 ± 0.57^□□ mmol/L, the TC (DN rats, low-dose 3 mg/kg) was 2.87 ± 0.69^□□ mmol/L and the TG (DN rats, low-dose 3 mg/kg) was 0.39 ± 0.05^□□ mmol/L. For the same compound, the UA (DN rats, low-dose 3 mg/kg) was 28.22 ± 7.14^□□●● μmol/L, the Kidney coefficient (DN rats, low-dose 3 mg/kg) was 1.06 ± 0.05% and the BUN (DN rats, medium-dose 9 mg/kg) was 10.07 ± 2.85 mmol/L. For the same compound, the CREA (DN rats, medium-dose 9 mg/kg) was 53.06 ± 3.75 µmol/L, the Glycated hemoglobin (DN rats, medium-dose 9 mg/kg) was 7.33 ± 0.77^□ % and the Urinary protein (DN rats, medium-dose 9 mg/kg) was 2.80 ± 1.02^□□●● mg/6 h. The “mALB (microalbumin in urine)” value (DN rats, medium-dose 9 mg/kg) was 51.76 ± 9.44^□□●▴ μg/6 h, the ICAM-1 (DN rats, medium-dose 9 mg/kg) was 321.63 ± 82.35 pg/mgprog and the IL-1β (DN rats, medium-dose 9 mg/kg) was 155.22 ± 19.45 pg/mgprog. For the same compound, the IL-6 (DN rats, medium-dose 9 mg/kg) was 111.69 ± 35.86^□ pg/mgprog, the MDA (DN rats, medium-dose 9 mg/kg) was 1.48 ± 0.16 nmol/mgprog and the NF-κB (DN rats, medium-dose 9 mg/kg) was 786.93 ± 79.73^□□▴▴● pg/mgprog. For the same compound, the SOD (DN rats, medium-dose 9 mg/kg) was 5.12 ± 1.41 U/mgprog, the T-AOC (DN rats, medium-dose 9 mg/kg) was 1.37 ± 0.31 U/mgprog and the TGF-β1 (DN rats, medium-dose 9 mg/kg) was 27.91 ± 5.90^□□▴▴ pg/mgprot. The TNF-α (DN rats, medium-dose 9 mg/kg) was 321.27 ± 86.34^□ pg/mgprog, the VCAM-1 (DN rats, medium-dose 9 mg/kg) was 31.09 ± 5.42 pg/mgprog and the “Glucose (GLU)” value (DN rats, medium-dose 9 mg/kg) was 11.86 ± 2.96^□□▴ mmol/L. The HDL-C (DN rats, medium-dose 9 mg/kg) was 1.23 ± 0.40 mmol/L, the LDL-C (DN rats, medium-dose 9 mg/kg) was 1.41 ± 0.33^□□ mmol/L and the TC (DN rats, medium-dose 9 mg/kg) was 2.33 ± 0.58^□□ mmol/L. The TG (DN rats, medium-dose 9 mg/kg) was 0.30 ± 0.07^□□ mmol/L, the UA (DN rats, medium-dose 9 mg/kg) was 27.18 ± 5.37^□□●● μmol/L and the Kidney coefficient (DN rats, medium-dose 9 mg/kg) was 1.00 ± 0.11%. For the same compound, the “effect on resisting the DN of rats” value (overall summary in words) was “stronger effect in resisting the DN of rats” and the “activity in resisting the type II diabetic nephropathy, A8 compared with LM49” value (rat, in vivo) was “higher activity in resisting the type II diabetic nephropathy than the compound LM49”.
